Measurements taken from publication PMC10461232, “Structure-Based Design of Transport-Specific Multitargeted One-Carbon Metabolism Inhibitors in Cytosol and Mitochondria” (Journal of Medicinal Chemistry, 2023).
Like-named read-outs stand apart in the source and are kept apart here.

Experiments:
human ATIC = biological target: T1, human ATIC (Homo sapiens, UniProt P31939); test: AICARFTase (ATIC) inhibition assay, Ki; format: biochemical; settings: for Ki: purified His-ATIC, AICARFTase activity, 50 μM 10-formyl THF, 25 °C, mean (SD), at least 3 replicates
T1 construct: N-terminal His6-tagged full-length human ATIC; made in house; host or cells: E. coli Rosetta (DE3)pLysS
T1 sequence (P31939 whole entry): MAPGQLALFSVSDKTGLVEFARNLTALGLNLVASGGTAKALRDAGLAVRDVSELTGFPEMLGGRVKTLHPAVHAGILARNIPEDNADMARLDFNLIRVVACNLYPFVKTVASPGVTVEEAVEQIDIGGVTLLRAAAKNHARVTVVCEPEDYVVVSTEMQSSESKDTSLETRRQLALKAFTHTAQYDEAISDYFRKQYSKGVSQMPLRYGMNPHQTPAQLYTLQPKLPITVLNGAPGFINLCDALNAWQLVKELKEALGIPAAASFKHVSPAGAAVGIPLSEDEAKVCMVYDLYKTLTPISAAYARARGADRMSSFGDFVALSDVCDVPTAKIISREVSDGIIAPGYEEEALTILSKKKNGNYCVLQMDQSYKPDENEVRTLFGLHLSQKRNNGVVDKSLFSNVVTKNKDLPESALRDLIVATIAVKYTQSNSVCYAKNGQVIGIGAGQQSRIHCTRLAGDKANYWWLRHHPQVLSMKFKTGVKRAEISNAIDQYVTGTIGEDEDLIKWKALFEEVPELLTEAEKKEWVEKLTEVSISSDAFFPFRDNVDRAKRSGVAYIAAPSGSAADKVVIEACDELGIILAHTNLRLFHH
Method: The cells were grown at 37 °C in 1 L cultures of LB media containing […] and […] until OD600 reached 0.6. Protein expression was induced by the addition of isopropyl β-D1-thiogalactopyranoside (IPTG, 500 μM).
His-ATIC was purified by Ni-NTA chromatography (Gold Biotechnology).[36] […] His-ATIC was eluted in 1 column volume fractions, 5 times with buffer containing 300 mM imidazole, 25 mM Tris-HCl, pH 7.5, 300 mM NaCl, and 5 mM β-Me. Size exclusion chromatography on a Superdex 200 16/60 (GE Healthcare) column was used for final purification using 20 mM Tris-HCl, pH 7.5, 150 mM NaCl, 50 mM KCl, 5 mM EDTA, and 5 mM dithiothreitol.
MTHFD2 activities were assayed by a reaction with methylene THF and NAD^+. NADH production was measured by fluorescence (excitation 340 nm, emission 480 nm). Reaction conditions included 100 nM MTHFD2, 5 μM methylene THF, and concentrations of small-molecule inhibitor ranging from 0.02 nM to 2000 nM; NAD^+ (2.5 mM) was added to initiate the reaction. The reaction buffer consisted of 50 mM Tris-HCl, pH 7.5, 250 mM NaCl, 5 mM magnesium chloride, 5% glycerol, and 0.5 mM TCEP. […] To assay SHMT1 or SHMT2 (SHMT1/2) enzymes, a coupled reaction with His-MTHFD2 in 200-fold molar excess was used where the production of NADH was monitored by fluorescence with excitation at 360 nm and emission at 470 nm at 25 °C. The reactions contained 5 nM His-SHMT1/2, 50 μM THF, 20 mM serine, 10 μM His-MTHFD2, 2.5 mM NAD^+, and a range of inhibitor concentrations (final concentrations). The reactions were performed in buffer containing 20 mM sodium phosphate, pH 7.5, 100 mM KCl, 0.2 mM EDTA, and 5 mM β-Me. […] To calculate IC50 values for each inhibitor, initial velocities were graphed as a function of inhibitor concentrations and fit with a three-parameter nonlinear regression (GraphPad Prism 8.0). The equation [Ki = IC50/([S]/KM + 1)] was used to convert IC50’s to Ki values.

[1] = tested on: R2 (MTXRIIOuaR2-4) CHO cells; test: Growth inhibition, transporter-null R2 CHO cells; format: cell-based, Chinese hamster; settings: Cricetulus griseus, 96 h, read-out: IC50 R2
PC43-10 (RFC) CHO cells = test: Growth inhibition, PC43-10 CHO cells expressing human RFC; format: cell-based, Chinese hamster; settings: Cricetulus griseus, 96 h, read-out: IC50 PC43-10 (RFC)
[2] = tested on: R2/PCFT4 (PCFT) CHO cells; test: Growth inhibition, R2/PCFT4 CHO cells expressing human PCFT; format: cell-based, Chinese hamster; settings: Cricetulus griseus, 96 h, read-out: IC50 R2/PCFT4 (PCFT)
RT16 (FRα) CHO cells = test: Growth inhibition, RT16 CHO cells expressing human FRα; format: cell-based, Chinese hamster
KB (RFC/PCFT/FRα) cells = test: Growth inhibition, KB nasopharyngeal carcinoma cells; format: cell-based, human; settings: folate-free RPMI 1640, 2 nM leucovorin, mean (SE)
Method: The CHO cells were cultured in α-minimal essential medium (MEM) supplemented with 10% bovine calf serum (Fisher Scientific), penicillin (1000 U/mL)/streptomycin (1000 μg/mL), and 2 mM L-glutamine at 37 °C with 5% CO2. All of the R2 transfected cells (PC43-10, RT16, R2/PCFT4) were cultured in complete α-MEM media plus 1 mg/mL G418. Prior to the cytotoxicity assays (see below), RT16 and D4 cells were cultured for 3 days in complete folate-free RPMI 1640 (without added folate), and R2/PCFT4 and R2 cells were cultured in complete folate-free RPMI 1640 supplemented with dialyzed fetal bovine serum (Fisher Scientific) and 25 nM leucovorin plus 1 mg/mL G418. KB cells were routinely cultured in folate-free RPMI 1640 medium, supplemented with 10% fetal bovine serum (Fisher Scientific), penicillin-streptomycin solution, and 2 mM L-glutamine at 37 °C with 5% CO2.
For growth inhibition studies, cells (CHO, KB) were plated in 96-well dishes (∼2500–5000 cells/well, total volume of 200 μL medium) over a range of antifolate concentrations.[69],[77] The medium was folate-free RPMI 1640 with 10% dialyzed serum and antibiotics supplemented with 25 nM leucovorin for experiments with R2, PC43-10, and R2/PCFT4 cells. For experiments with RT16, D4, and KB cells, cells were cultured in folate-free RPMI medium with 10% dialyzed fetal bovine serum and antibiotics; the medium was supplemented with 2 nM leucovorin. […] Incubations were routinely for up to 96 h. Viable cells (reflecting cell viability) were assayed with Cell Titer Blue reagent (Promega, Madison, WI), with fluorescence measured (590 nm emission, 560 nm excitation) with a fluorescence plate reader.

HPAC (RFC/PCFT) cells = test: Proliferation inhibition, HPAC pancreatic adenocarcinoma cells; format: cell-based, human; settings: HPAC cells, folate- and glycine-free RPMI, 25 nM leucovorin, mean (SE)
Text: (§1) The RFC-, PCFT-, and FR-null MTXRIIOua^R2–4 (R2), and RFC- (PC43-10), PCFT- (R2/PCFT4), FRα- (RT16), and FRβ- (D4) expressing CHO sublines were previously described.[62]−[64],[76] HPAC pancreatic cancer cells were generously provided by Dr. Yubin Ge (Karmanos Cancer Institute, Detroit, MI). Human pancreatic normal epithelial (HPNE) cells[67] were a gift from M. Oulette (University of Nebraska Medical Center, Omaha, NE). KB human nasopharyngeal carcinoma cells were purchased from the American Type Culture Collection (Manassas, VA). All human cell lines were validated by STR analysis by Genetica DNA Laboratories (Burlington, NC). Cell lines were tested for Mycoplasma by PCR using a Mycloplasma testing kit (Venor GeM Mycoplasma Detection Kit, Sigma). Frozen stocks were generated from authenticated Mycoplasma-free cultures.

HPNE (RFC) cells = test: Proliferation inhibition, HPNE normal pancreatic epithelial cells; format: cell-based; settings: Homo sapiens, folate- and glycine-free RPMI, 25 nM leucovorin
Text: as §1

human GARFTase = biological target: T2, human GARFTase (Homo sapiens, UniProt P22102); test: GARFTase inhibition assay, Ki (10-formyl THF to THF, absorbance 298 nm); format: biochemical; settings: purified His-GARFTase, 40 μM 10-formyl THF, 37 °C; mean (SD), at least 3 replicates
T2 construct: formyltransferase domain of human GARFTase (residues 808–1010); made in house; host or cells: E. coli Rosetta (DE3)pLysS
T2 sequence (P22102 808-1010): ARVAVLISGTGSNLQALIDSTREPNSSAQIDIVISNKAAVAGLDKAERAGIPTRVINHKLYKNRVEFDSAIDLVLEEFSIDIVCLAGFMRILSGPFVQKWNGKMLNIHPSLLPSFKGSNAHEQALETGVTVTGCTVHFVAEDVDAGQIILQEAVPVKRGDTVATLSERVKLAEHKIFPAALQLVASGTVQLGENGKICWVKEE

D4 (FRβ) CHO cells = test: Growth inhibition, D4 CHO cells expressing human FRβ; format: cell-based, Chinese hamster; settings: for IC50: Cricetulus griseus, CHO
SHMT1 = biological target: T3, SHMT1 (Homo sapiens, UniProt P34896); test: SHMT1 inhibition assay coupled with MTHFD2, Ki; format: biochemical; settings: purified His-SHMT1, 50 μM THF, 25 °C; mean (SD), at least 3 replicates
T3 construct: full-length SHMT1 with an N-terminal His6-tag; made in house; host or cells: E. coli Rosetta (DE3)pLysS
T3 sequence (P34896 1-483): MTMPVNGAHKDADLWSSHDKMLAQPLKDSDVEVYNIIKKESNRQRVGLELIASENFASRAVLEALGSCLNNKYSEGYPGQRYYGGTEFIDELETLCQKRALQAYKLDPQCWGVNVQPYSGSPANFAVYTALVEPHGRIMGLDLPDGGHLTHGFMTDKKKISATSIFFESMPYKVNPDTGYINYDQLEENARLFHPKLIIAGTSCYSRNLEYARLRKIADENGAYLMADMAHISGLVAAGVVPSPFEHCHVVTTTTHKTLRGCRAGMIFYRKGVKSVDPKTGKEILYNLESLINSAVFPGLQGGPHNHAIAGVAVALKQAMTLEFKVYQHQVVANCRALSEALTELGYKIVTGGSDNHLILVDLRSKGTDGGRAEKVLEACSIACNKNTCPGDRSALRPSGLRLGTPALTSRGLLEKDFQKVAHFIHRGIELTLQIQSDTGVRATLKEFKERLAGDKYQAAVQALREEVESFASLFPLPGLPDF
Method: Kinetic measurements were recorded in triplicate using a flat, black-bottom, black-walled 96-well plate (Greiner Bio-One, 655900) and a BioTek Synergy Neo2 Plate Reader. […] To assay SHMT1 or SHMT2 (SHMT1/2) enzymes, a coupled reaction with His-MTHFD2 in 200-fold molar excess was used where the production of NADH was monitored by fluorescence with excitation at 360 nm and emission at 470 nm at 25 °C. The reactions contained 5 nM His-SHMT1/2, 50 μM THF, 20 mM serine, 10 μM His-MTHFD2, 2.5 mM NAD^+, and a range of inhibitor concentrations (final concentrations). The reactions were performed in buffer containing 20 mM sodium phosphate, pH 7.5, 100 mM KCl, 0.2 mM EDTA, and 5 mM β-Me. A BioTek Synergy Neo2 Plate Reader was used to record kinetic measurements in triplicate in a UV-transparent 96-well plate (Costar 3635) for GARFTase and AICARFTase assays and a black-well, black-bottom 96-well plate (Corning 3603). To calculate IC50 values for each inhibitor, initial velocities were graphed as a function of inhibitor concentrations and fit with a three-parameter nonlinear regression (GraphPad Prism 8.0). The equation [Ki = IC50/([S]/KM + 1)] was used to convert IC50’s to Ki values.

[3] = transporter-null CHO cells, 25 nM leucovorin, mean (SE)
[4] = CHO cells expressing human RFC, 25 nM leucovorin, mean (SE)
[5] = CHO cells expressing human FRα, 96 h, 2 nM leucovorin, mean (SE), read-out: IC50 RT16 (FRα)
[6] = Cricetulus griseus, 96 h, CHO cells expressing human FRα, 96 h, 2 nM leucovorin, mean (SE), read-out: IC50 RT16 (FRα)
[7] = CHO cells expressing human PCFT, 25 nM leucovorin, mean (SE)
[8] = 96 h, CHO cells expressing human FRβ, 96 h, 2 nM leucovorin, mean (SE), read-out: IC50 D4 (FRβ)

Compound	Ki (human ATIC) [µM]	IC50 (KB (RFC/PCFT/FRα) cells; Homo sapiens, KB) [nM]	IC50 (HPAC (RFC/PCFT) cells; Homo sapiens, HPAC) [nM]	IC50 [1, 3] [nM]	IC50 (PC43-10 (RFC) CHO cells; [4]) [nM]	IC50 [2] [nM]	IC50 (RT16 (FRα) CHO cells; [5]) [nM]	IC50 (RT16 (FRα) CHO cells; [6]) [nM]	IC50 (KB (RFC/PCFT/FRα) cells) [nM]	IC50 (HPNE (RFC) cells) [µM]	Ki (human GARFTase) [nM]	IC50 [2, 7] [nM]	IC50 (D4 (FRβ) CHO cells; [8]) [nM]	other results
Nc1nc2ccn(CCCSc3ccc(C(=O)N[C@@H](CCC(=O)O)C(=O)O)cc3)c2c(=O)[nH]1 [Compound 7, (4-((3-(2-Amino-4-oxo-3,4-dihydro-5H-pyrrolo[3,2-d]pyrimidin-5-yl)propyl)thio)benzoyl)-L-glutamic Acid]	4.81	31.5	> 5000	> 1000	> 1000	> 1000	3.13	< 3	31.5	> 5	–	–	–	–
Nc1nc2ccn(CCCCc3ccc(C(=O)N[C@@H](CCC(=O)O)C(=O)O)c(F)c3)c2c(=O)[nH]1 [Compound 1, (4-(4-(2-Amino-4-oxo-3,4-dihydro-5H-pyrrolo[3,2-d]pyrimidin-5-yl)butyl)-2-fluorobenzoyl)-L-glutamic Acid]	–	1.3	196	–	–	479	–	–	1.25	> 5	3130	–	–	IC50 ([1]; CHO): > 1000 nM; IC50 (PC43-10 (RFC) CHO cells): 224 nM; IC50 (RT16 (FRα) CHO cells; Cricetulus griseus, RT16, read-out: IC50 FRα (cell-based inhibition), Figure 14, from Table 3 (RT16 cells)): 1 nM; IC50 (D4 (FRβ) CHO cells; read-out: IC50 FRβ (cell-based inhibition), Figure 14, from Table 3 (D4 cells)): 1 nM
Nc1nc2ccn(CCCc3ccc(C(=O)N[C@@H](CCC(=O)O)C(=O)O)cc3)c2c(=O)[nH]1 [Compound 2]	13.4	6.73	310	> 1000	41.9	–	–	49.9	–	> 5	–	191	2.37	difference between D4 (FRβ) and RT16 (FRα) IC50 (D4 (FRβ) CHO cells; RT16 versus D4 CHO cells): 20- to 40 fold; IC50 (HPAC (RFC/PCFT) cells): 310 nM

More lines, main results first:

Ki (human ATIC) [µM]	IC50 (KB (RFC/PCFT/FRα) cells; Homo sapiens, KB) [nM]	IC50 (HPAC (RFC/PCFT) cells; Homo sapiens, HPAC) [nM]	Compound	IC50 [1, 3] [nM]	IC50 (PC43-10 (RFC) CHO cells; [4]) [nM]	IC50 [2] [nM]	IC50 (RT16 (FRα) CHO cells; [5]) [nM]	IC50 (RT16 (FRα) CHO cells; [6]) [nM]	IC50 (KB (RFC/PCFT/FRα) cells) [nM]	IC50 (HPNE (RFC) cells) [µM]	Ki (human GARFTase) [nM]	IC50 [2, 7] [nM]	IC50 (D4 (FRβ) CHO cells; [8]) [nM]	other results
0.93	6	1600	Nc1nc2ccn(CCCCc3csc(C(=O)N[C@@H](CCC(=O)O)C(=O)O)c3F)c2c(=O)[nH]1 [Compound 14, (4-(4-(2-Amino-4-oxo-3,4-dihydro-5H-pyrrolo[3,2-d]pyrimidin-5-yl)butyl)-3-fluorothiophene-2-carbonyl)-L-glutamic Acid]	> 1000	> 1000	–	–	19.8	–	> 5	2490	> 1000	6.2	fold better than 1, ATIC (human ATIC; ratio of Ki values relative to compound 1): ~4 fold
–	2.58	3210	Nc1nc2ccn(CCCCc3ccc(C(=O)N[C@@H](CCC(=O)O)C(=O)O)s3)c2c(=O)[nH]1 [Compound 16]	> 1000	> 1000	–	2.82	< 3	–	> 5	–	> 1000	–	Ki (SHMT1): 1040 nM
